Test results: PMC12974487, “Inhibition of FicD-mediated AMPylation and deAMPylation by isoprenoid diphosphates” (Proceedings of the National Academy of Sciences of the …, 2026)
Residue numbers refer to the chain shown, from its start.

Key:
FicD^R374C = target: T1, FicD^R374C (Homo sapiens, UniProt Q9BVA6, R374C); assay: DSF with FicD^R374C variant; format: binding
T1 construct: Wild-type FicD (residues 105-458) and all mutants were expressed as N-terminal 6xHis-Sumo fusions; 6xHis-Sumo (N, cleaved yes); made in house; host or cells: Rosetta(DE3) E. coli
T1 sequence (Q9BVA6 105-458 R374C): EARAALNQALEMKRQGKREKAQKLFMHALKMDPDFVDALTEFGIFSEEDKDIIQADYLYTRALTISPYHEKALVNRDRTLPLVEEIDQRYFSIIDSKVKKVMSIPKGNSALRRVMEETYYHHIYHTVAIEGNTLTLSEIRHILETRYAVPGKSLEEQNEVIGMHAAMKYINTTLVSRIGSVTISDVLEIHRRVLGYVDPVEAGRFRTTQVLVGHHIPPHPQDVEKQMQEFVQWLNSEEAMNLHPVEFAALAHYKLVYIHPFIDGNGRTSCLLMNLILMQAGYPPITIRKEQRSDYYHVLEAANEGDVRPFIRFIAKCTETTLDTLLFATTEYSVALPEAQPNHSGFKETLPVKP

FicD^R374H = target: T2, FicD^R374H (Homo sapiens, UniProt Q9BVA6, R374H); assay: DSF with FicD^R374H variant; format: binding
T2 construct: Wild-type FicD (residues 105-458) and all mutants were expressed as N-terminal 6xHis-Sumo fusions; 6xHis-Sumo (N, cleaved yes); made in house; host or cells: Rosetta(DE3) E. coli
T2 sequence (Q9BVA6 105-458 R374H): T1 sequence (Q9BVA6 105-458 R374C) with C270H

FicD^WT = target: T3, FicD^WT (Homo sapiens, UniProt Q9BVA6); assay: Total (intact) mass analysis of FicD^WT incubated with FPP; settings: 50uM FPP, 5mM MgCl2
T3 construct: soluble ER luminal domain (residues 105 to 458) of wild-type human FicD; 6xHis-Sumo (N, cleaved yes); made in house; host or cells: Rosetta(DE3) E. coli
T3 sequence (Q9BVA6 105-458): T1 sequence (Q9BVA6 105-458 R374C) with C270R
Text: To reveal the mechanism of FicD inhibition by FPP, we leveraged the FicD^E234G mutant for structural studies. We soaked FPP into crystals of the FicD^E234G variant and solved the ligand-bound structure (Fig. 5 A and B). […] The diphosphate group of FPP closely overlapped with the ADP diphosphate when superimposed with a FicD^E234G-ADP structure (Fig. 5 A, Left), and the hydrophobic isoprenyl groups of FPP overlap with the nucleoside in the active site binding pocket (Fig. 5 A, Right). The FPP diphosphate binds directly to the side chains of N369, R371, with the sidechain of D367 coordinating the Mg^2+ (Fig. 5B). These interactions mimic those observed between ADP/ATP and FicD ([26]). […] As previously noted, only GPP and FPP could bind to and inhibit FicD, but analogs of the isoprenoid-pyrophosphate metabolites (geraniol, GMP, farnesol, FMP, DMAPP, and MVAPP) could not (Fig. 2 B–D). Together, these observations indicate both the pyrophosphate head and the long isoprenoid tail of GPP/FPP contribute to the binding with FicD. […]
Intact mass analysis of proteins was performed by the UT Southwestern Proteomics Core. Intact protein samples were analyzed by LC/MS, using a Sciex X500B QTOF mass spectrometer operating in positive ion mode, coupled to an Agilent 1290 Infinity II HPLC. […]

Structure (SMILES): CC(C)=CCC/C(C)=C/CC/C(C)=C/COP(=O)(O)OP(=O)(O)O [FPP, farnesyl-pyrophosphate]
- binding to R374C variant by DSF (melting curve shift) (FicD^R374C; absence of Mg2+): caused shifts in the melting curves
- binding to R374C variant by DSF (melting curve shift) (FicD^R374C; addition of Mg2+): enhanced the binding
- binding to R374H variant by DSF (melting curve shift) (FicD^R374H; absence of Mg2+): caused shifts in the melting curves
- binding to R374H variant by DSF (melting curve shift) (FicD^R374H; addition of Mg2+): enhanced the binding
- mass shift associated with putative FPP automodification (FicD^WT): no mass shift
